US20200390100A1, “SUBSTITUTED N-HETEROCYCLYL- AND N-HETEROARYL-TETRAHYDROPYRIMIDINONES AND THE SALTS THEREOF, AND THE USE OF SAME AS HERBICIDAL ACTIVE SUBSTANCES” (Bayer Aktiengesellschaft, priority 2017, published 2020)

What was measured:
Abutilon theophrasti [1] = assay: Post-emergence herbicidal action, greenhouse, 320 g/ha; assay type: in vivo; conditions: application rate 320 g/ha, rated visually after about 3 weeks vs untreated controls
Summary of the method: (§1)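 Plants treated post-emergence at the one-leaf stage, 2 to 3 weeks after sowing in sandy loam, with WP or EC formulations plus 0.5% additive at 320 g/ha. Visual rating about 3 weeks later versus untreated controls (100% = dead, 0% = like control).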

Alopecurus myosuroides [2] = assay: as above; assay type: in vivo; conditions: application rate 320 g/ha, rated visually after about 3 weeks vs untreated controls
Summary of the method: as §1

Amaranthus retroflexus [3] = assay: as above; assay type: in vivo; conditions: application rate 320 g/ha, rated visually after about 3 weeks vs untreated controls
Summary of the method: as §1

Echinochloa crus-galli [4] = assay: as above; assay type: in vivo; conditions: application rate 320 g/ha, rated visually after about 3 weeks vs untreated controls
Summary of the method: as §1

Pharbitis purpurea [5] = assay: as above; assay type: in vivo; conditions: application rate 320 g/ha, rated visually after about 3 weeks vs untreated controls
Summary of the method: as §1

Polygonum convolvulus [6] = assay: as above; assay type: in vivo; conditions: application rate 320 g/ha, rated visually after about 3 weeks vs untreated controls
Summary of the method: as §1

Setaria viridis [7] = assay: as above; assay type: in vivo; conditions: application rate 320 g/ha, rated visually after about 3 weeks vs untreated controls
Summary of the method: as §1

Stellaria media [8] = assay: as above; assay type: in vivo; conditions: application rate 320 g/ha, rated visually after about 3 weeks vs untreated controls
Summary of the method: as §1

Viola tricolor [9] = assay: as above; assay type: in vivo; conditions: application rate 320 g/ha, rated visually after about 3 weeks vs untreated controls
Summary of the method: as §1

Abutilon theophrasti [10] = assay: Pre-emergence herbicidal action, greenhouse, 320 g/ha; assay type: in vivo; conditions: application rate 320 g/ha, scored visually after about 3 weeks vs untreated controls
Summary of the method: (§2)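 Seeds were sown in pots and covered with soil. WP or EC formulations were sprayed onto the soil surface as aqueous suspension or emulsion with 0.5% additive. Damage was scored visually after about 3 weeks as % activity against untreated controls (100% = plants dead, 0% = like control).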

Alopecurus myosuroides [11] = assay: as above; assay type: in vivo; conditions: application rate 320 g/ha, scored visually after about 3 weeks vs untreated controls
Summary of the method: as §2

Amaranthus retroflexus [12] = assay: as above; assay type: in vivo; conditions: application rate 320 g/ha, scored visually after about 3 weeks vs untreated controls
Summary of the method: as §2

Hordeum murinum [13] = assay: as above; assay type: in vivo; conditions: application rate 320 g/ha, Table B14
Summary of the method: as §2

Matricaria inodora [14] = assay: as above; assay type: in vivo; conditions: application rate 320 g/ha, scored visually after about 3 weeks vs untreated controls
Summary of the method: as §2

Pharbitis purpurea [15] = assay: as above; assay type: in vivo; conditions: application rate 320 g/ha, Table B12
Summary of the method: as §2

Polygonum convolvulus [16] = assay: as above; assay type: in vivo; conditions: application rate 320 g/ha, scored visually after about 3 weeks vs untreated controls
Summary of the method: as §2

Setaria viridis [17] = assay: as above; assay type: in vivo; conditions: application rate 320 g/ha, Table B11
Summary of the method: as §2

Stellaria media [18] = assay: as above; assay type: in vivo; conditions: application rate 320 g/ha, scored visually after about 3 weeks vs untreated controls
Summary of the method: as §2

Veronica persica [19] = assay: as above; assay type: in vivo; conditions: application rate 320 g/ha, Table B13
Summary of the method: as §2

Viola tricolor [20] = assay: as above; assay type: in vivo; conditions: application rate 320 g/ha, Table B8
Summary of the method: as §2

photosystem II (PS II) = target: T1, photosystem II (PS II) (Spinacia oleracea, UniProt P69560); assay: Measurement of PS II activity in thylakoid membranes (DCPIP reduction); assay type: biochemical, spinach; conditions: PS II activity in spinach thylakoid membranes, Table E1; read-out: Effect
T1 construct: the chloroplasts were osmotically ruptured and the thylakoid membranes were then obtained by centrifugation; from tissue; host or cells: fresh spinach leaves; thylakoid membrane preparation from isolated chloroplasts
Summary of the method: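 Thylakoid membranes from osmotically ruptured spinach chloroplasts in 50 mM phosphate pH 6.8, 10 mM KCl; compounds added from 100 μM DMSO solution (2.5% DMSO final), 120 μM DCPIP final. DCPIP reduction under light tracked as absorbance decrease at 595 nm over 10 min at 22 °C; % inhibition binned, metribuzin as plate standard.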

Hordeum murinum [21] = assay: Post-emergence herbicidal action, greenhouse, 320 g/ha; assay type: in vivo; conditions: application rate 320 g/ha, rated visually after about 3 weeks vs untreated controls
Summary of the method: as §1

Lolium rigidum = assay: as above; assay type: in vivo; conditions: application rate 320 g/ha, rated visually after about 3 weeks vs untreated controls
Summary of the method: as §1

Matricaria inodora [22] = assay: as above; assay type: in vivo; conditions: application rate 320 g/ha, rated visually after about 3 weeks vs untreated controls
Summary of the method: as §1

Veronica persica [23] = assay: as above; assay type: in vivo; conditions: application rate 320 g/ha, rated visually after about 3 weeks vs untreated controls
Summary of the method: as §1

Avena fatua = assay: Pre-emergence herbicidal action, greenhouse, 320 g/ha; assay type: in vivo; conditions: application rate 320 g/ha, scored visually after about 3 weeks vs untreated controls
Summary of the method: as §2

Echinochloa crus-galli [24] = assay: as above; assay type: in vivo; conditions: application rate 320 g/ha, scored visually after about 3 weeks vs untreated controls
Summary of the method: as §2

inhibition at 100 µM (photosystem II (PS II)) [%]	SMILES	Abutilon theophrasti (efficacy in %) (Abutilon theophrasti [1]) [%]	Amaranthus retroflexus (efficacy in %) (Amaranthus retroflexus [3]) [%]	Pharbitis purpurea (efficacy in %) (Pharbitis purpurea [5]) [%]	Polygonum convolvulus (efficacy in %) (Polygonum convolvulus [6]) [%]	Setaria viridis (efficacy in %) (Setaria viridis [7]) [%]	Stellaria media (efficacy in %) (Stellaria media [8]) [%]	Viola tricolor (efficacy in %) (Viola tricolor [9]) [%]	Abutilon theophrasti (efficacy in %) (Abutilon theophrasti [10]) [%]	Alopecurus myosuroides (efficacy in %) (Alopecurus myosuroides [11]) [%]	Amaranthus retroflexus (efficacy in %) (Amaranthus retroflexus [12]) [%]	Hordeum murinum (efficacy in %) (Hordeum murinum [13]) [%]	Matricaria inodora (efficacy in %) (Matricaria inodora [14]) [%]	Pharbitis purpurea (efficacy in %) (Pharbitis purpurea [15]) [%]	Polygonum convolvulus (efficacy in %) (Polygonum convolvulus [16]) [%]	Setaria viridis (efficacy in %) (Setaria viridis [17]) [%]	Stellaria media (efficacy in %) (Stellaria media [18]) [%]	Veronica persica (efficacy in %) (Veronica persica [19]) [%]	Viola tricolor (efficacy in %) (Viola tricolor [20]) [%]	further results
70 to 90	CC(=O)OC1CCN(C)C(=O)N1c1cc(C(C)(C)C)on1 (stereo not shown) [I.2-162, 3-(5-tert-Butyl-1,2-oxazol-3-yl)-1-methyl-2-oxohexahydropyrimidin-4-yl Acetate]	100	100	100	100	100	100	100	100	90	100	80	100	100	100	90	100	90	100	Alopecurus myosuroides (efficacy in %) (Alopecurus myosuroides [2]): 80%; Echinochloa crus-galli (efficacy in %) (Echinochloa crus-galli [4]): 80%
50 to 70	CCC(=O)OC1CCN(C)C(=O)N1c1cc(C(C)(C)C)on1 (stereo not shown) [I.3-162, 3-(5-tert-Butyl-1,2-oxazol-3-yl)-1-methyl-2-oxohexahydropyrimidin-4-yl Propionate]	100	100	100	100	90	100	100	100	80	100	90	100	100	100	100	90	100	100	Hordeum murinum (efficacy in %) (Hordeum murinum [21]): 90%; Lolium rigidum (efficacy in %) (Lolium rigidum): 80%; Matricaria inodora (efficacy in %) (Matricaria inodora [22]): 100%; Veronica persica (efficacy in %) (Veronica persica [23]): 90%; Avena fatua (efficacy in %) (Avena fatua): 100%; Echinochloa crus-galli (efficacy in %) (Echinochloa crus-galli [24]): 80%
